Data taken from patent US9493466B2, “Treatment of cancer with TOR kinase inhibitors” (Signal Pharmaceuticals, LLC, priority 2011, dated 2016).

Assays:
[1] = system: advanced solid tumors, non-Hodgkin lymphoma or multiple myeloma; experiment: Phase 1/2 study Part A: tumor response; format: in vivo, human
Excerpt: Subjects will be evaluated for efficacy every 2 cycles through cycle 6 and every 3 cycles thereafter. The primary efficacy variable is response. Tumor assessments, including imaging (CT, MRI and/or PET) of the chest and abdomen and other sites as appropriate, will be performed during Screening. Subjects with brain lesions will also have brain scans at Screening and during follow-up tumor assessments. After Screening, tumor assessments (for all tumors except multiple myeloma) will be performed on completion of Cycles 2, 4 and 6 (i.e., on Cycles 3, 5 and 7/Day 1±7 days) and then every 3 months thereafter (e.g., Cycle 10 and 13/Day 1±7 days). Tumor assessment (for multiple myeloma and only NHL/DLBCL with known or suspected marrow involvement) (bone marrow aspiration and biopsy, with PD biomarker analysis, cytogenetic analysis if abnormally present at Screening) will be performed on completion of Cycles 4, 8, 12 and 16 only (i.e., on Cycles 5, 9, 13 and 17/Day 1±7 days). Cytogenetics need not be repeated if normal at Screening. Tumor response will be based on Response Evaluation Criteria in Solid Tumors (RECIST 1.1), International Workshop Criteria (IWC) for NHL/DLBCL or International Uniform Response Criteria (IURC) for Multiple Myeloma, and RANO for GBM, using the post resection MRI scan as the baseline. Given the difficulty in assessing tumor response following salvage surgery, the primary efficacy endpoint for GBM will be the proportion of subjects progression-free at 6 months from Day 1 relative to efficacy evaluable subjects in the GBM type. Subjects will be evaluated for tumor response on completion of Cycle 2, 4, 6, and so on. A descriptive analysis of evidence of anti-tumor activity will be provided based on clinical and radiographic assessments by the investigator, which includes assessment of target lesion, non-target lesion, new lesion and overall response.
The efficacy variable of focus for Part A will be best overall response. Other preliminary efficacy variables will be summarized using frequency tabulations for categorical variables or descriptive statistics for continuous variables.
Part A: Accelerated Dose Escalation Results.

[2] = system: NSCLC primary tumor grafts; experiment: Low passage tumorgraft models of NSCLC; format: in vivo, immunocompromised mice; settings: 1, 5 and 10 mg/kg once daily for 28 days
Description: In Vivo Evaluation of Compound 1 in Low Passage Tumorgraft Models of Non-Small Cell Lung Cancer (NSCLC). The objective of the study was to evaluate the single agent efficacy of Compound 1 in non-small cell lung cancer (NCSLC) models. The antitumor activity of Compound 1 was evaluated in low passage non-small cell lung cancer (NSCLC) tumorgraft models. The tumorgrafts were developed by directly implanting the human tumor fragments into immunocompromised mice and then subsequently passaged in vivo. The tumors from these primary tumorgrafts have preserved biological and morphological characteristics of the original human tumors. The antitumor activity of Compound 1 was evaluated at three dose levels (1, 5 and 10 mg/kg) with once daily dosing for 28 days. During the course of the study antitumor activity was evaluated by measuring the tumors.

[3] = system: HCC; experiment: Phase 1/2 study Part B: tumor response, HCC; format: in vivo, human; settings: 14 evaluable patients
Excerpt: In Part B, subjects may start Compound 1 at the MTD and/or a lower dose level based on safety, PK and PD data from Part A. Approximately 150 subjects will be treated and evaluated for safety and preliminary antitumor activity after every two cycles of therapy. Tumor types include non-small cell lung cancer (NSCLC), glioblastoma multiforme (GBM), hepatocellular carcinoma (HCC), gastrointestinal neuroendocrine tumor of non-pancreatic origin (NET), diffuse large B-cell lymphoma (DLBCL), multiple myeloma (MM), and hormone receptor positive breast cancer (HRPBC). Up to 20 subjects will be enrolled in each tumor type.
Subjects will be evaluated for efficacy every 2 cycles through cycle 6 and every 3 cycles thereafter. The primary efficacy variable is response. Tumor assessments, including imaging (CT, MRI and/or PET) of the chest and abdomen and other sites as appropriate, will be performed during Screening. Subjects with brain lesions will also have brain scans at Screening and during follow-up tumor assessments. After Screening, tumor assessments (for all tumors except multiple myeloma) will be performed on completion of Cycles 2, 4 and 6 (i.e., on Cycles 3, 5 and 7/Day 1±7 days) and then every 3 months thereafter (e.g., Cycle 10 and 13/Day 1±7 days). Tumor assessment (for multiple myeloma and only NHL/DLBCL with known or suspected marrow involvement) (bone marrow aspiration and biopsy, with PD biomarker analysis, cytogenetic analysis if abnormally present at Screening) will be performed on completion of Cycles 4, 8, 12 and 16 only (i.e., on Cycles 5, 9, 13 and 17/Day 1±7 days). Cytogenetics need not be repeated if normal at Screening. […] Subjects will be evaluated for tumor response on completion of Cycle 2, 4, 6, and so on. […]
For Part B, efficacy variables to be analyzed include tumor response at the end of treatment, the proportion of subject alive and progression-free, and duration of response. […]

[4] = ER+/Her2− breast cancer subject

CO[C@H]1CC[C@H](N2C(=O)CNc3ncc(-c4ccc(C(C)(C)O)nc4)nc32)CC1 [Compound 1, 7-(6-(2-hydroxypropan-2-yl)pyridin-3-yl)-1-((1r,4r)-4-methoxycyclohexyl)-3,4-dihydropyrazino-[2,3-b]pyrazin-2(1H)-one]
regression of target lesions ([1]; 1 breast cancer subject, FIG. 27): greater than 30%
duration of Partial Response, first restaging scan to last scan [1, 4]: 220 days
duration of partial response, first restaging scan to last dose [1, 4]: 271 days
time to progression, first dose to last dose [1, 4]: 328 days
time to progression, first dose to last scan [1, 4]: 277 days
maximum reduction in target lesions ([1]; ER+/Her2− breast cancer subject, after 10 cycles): 50%
reduction in target lesions ([1]; ER+/Her2− breast cancer subject, first restaging after 2 cycles): 30%
longest duration of SD ([1]; Part A): 24 weeks
subjects with target lesion responses in the stable range ([1]; Part A, FIG. 28): Fifteen subjects
subjects with Stable Disease at first restaging ([1]; Part A, after 2 cycles): Eight subjects
subjects with PR (best overall response) ([1]; Part A, breast cancer, dose escalated from 30 to 45 mg, more than 11 cycles): One subject
growth of tumor grafts [2]: significantly inhibited
best target lesions responses (reduction) [3]: up to 47%
patients meeting Partial Response (RECIST 1.1) [3]: 2 patients
patients meeting at least Stable Disease (RECIST 1.1) [3]: 5 patients
